Test results as given in PubChem BioAssay AID651853 (NMMLSC, 2012).
pEC50: −log10 of the molar value.

system: AM2.2 cells FAP-GPR32, fluorogen binding, flow cytometry MCF; assay: interference with FAP fluorogen signal – human GPR32, AM2.2 cells, powder set 3, counter-screen for beta2AR agonist internalization project, dose response (AID 651853)

With `O=C(c1cc2c(=O)n3ccccc3nc2s1)N1CCN(Cc2ccc3c(c2)OCO3)CC1` as the molecule, how does the pEC50 read?
The pEC50 was 6.96.

How did the pEC50 turn out when `CC(=O)Nc1ccc(S(=O)(=O)N2CCC(Oc3ccc(-n4cnnn4)cc3)CC2)cc1` was run?
The pEC50 was 7.40.

With `C=CCn1c(CCNC(=O)c2cccs2)nnc1SCC(=O)c1ccc(Br)cc1` as the molecule, how does the pEC50 read?
The pEC50 was 8.00.

How did the pEC50 turn out when `CC1(C)Cc2c(c(N3CCCC3)nc3sc4c(N5CCN(CCO)CC5)ncnc4c23)CO1` was run?
Its pEC50 is 5.59.

`CC(Sc1nc(-c2ccccc2)cc(C(F)(F)F)n1)C(=O)N1CCCCC1` (stereo not given) was tested. Which pEC50 did it give?
The pEC50 was 8.00.

`Clc1ccc(OCc2nnc(SCc3nc4ccccc4[nH]3)n2Cc2ccco2)cc1` was tested. Which pEC50 did it give?
Its pEC50 is 8.00.

How did the pEC50 turn out when `COc1ccc(OC)c(CCNC(=O)C2CCN(c3nnc(-n4cccc4)s3)CC2)c1` was run?
Its pEC50 is 5.85.

With `Cc1ccc(OCc2cc(C(=O)N(C)Cc3cnn(-c4ccccc4C)c3)no2)cn1` as the molecule, how does the pEC50 read?
Its pEC50 is 7.22.

With `Cc1ccc(Cn2ccc(NC(=O)c3cc4nc(-c5ccco5)cc(C(F)(F)F)n4n3)n2)cc1` as the molecule, how does the pEC50 read?
Its pEC50 is 8.00.

How did the pEC50 turn out when `CC(Sc1nc(-c2ccccc2)cc(C(F)(F)F)n1)C(=O)N1CCOCC1` (stereo not given) was run?
The pEC50 was 7.70.

How did the pEC50 turn out when `Cn1c(N2CCN(c3ccccn3)CC2)nc2c1c(=O)n(Cc1ccc(Cl)cc1)c(=O)n2C` was run?
The pEC50 was 8.00.

With `Cc1ncc(CN2CCCC(C(=O)Nc3ccc(-c4cccc(F)c4)cc3)C2)s1` (stereo not given) as the molecule, how does the pEC50 read?
The pEC50 was 6.06.

With `CSc1nc(SCCO)c2sc3nc(-c4ccco4)c4c(c3c2n1)CC(C)(C)OC4` as the molecule, how does the pEC50 read?
The pEC50 was 5.74.

`CN(Cc1ccccc1)S(=O)(=O)c1ccc(NS(=O)(=O)Cc2ccccc2)cc1` was tested. Which pEC50 did it give?
Its pEC50 is 7.30.

`CC(Oc1ccc(Cl)cc1Cl)c1nc(-c2ccc(NC(=O)c3ccccn3)cc2)no1` (stereo not given) was tested. Which pEC50 did it give?
Its pEC50 is 6.92.

How did the pEC50 turn out when `CC(C)Cc1nc2sc3c(NCc4ccco4)ncnc3c2c2c1COC(C)(C)C2` was run?
The pEC50 was 7.70.

How did the pEC50 turn out when `Clc1cccc(-c2nnc(SCc3nc4ccccc4[nH]3)n2Cc2ccco2)c1` was run?
The pEC50 was 5.14.

How did the pEC50 turn out when `Cc1ccc(NC(=O)C(c2ccc(Cl)cc2)N2CCOCC2)cc1` (stereo not given) was run?
The pEC50 was 6.04.

With `CC(Oc1ccc(Cl)cc1Cl)c1nc(-c2ccc(NC(=O)c3ccco3)cc2)no1` (stereo not given) as the molecule, how does the pEC50 read?
The pEC50 was 6.64.

`Cc1ccccc1N1CCN(c2ncnc3c2cnn3Cc2ccc(Cl)cc2)CC1` was tested. Which pEC50 did it give?
Its pEC50 is 5.66.
